Laboratory results: publication PMC10304291, “THC-Reduced Cannabis sativa L.—How Does the Solvent Determine the Bioavailability of Cannabinoids Given Orally?” (Nutrients, 2023)

Columns and labels:
[1] = rats; 3 or 6 h after oral CBD 50 mg/kg in olive oil; cited from earlier work
[2] = mini-pigs; oral CBD 15 mg/kg; cited from earlier work
[3] = 12 healthy volunteers; chocolate cookies with 0.57 mg/kg CBD + 0.28 mg/kg THC; after 1.5–3 h; cited from earlier work
[4] = Brain pharmacokinetics of CBD and THC after single oral dose of Cannabis sativa extract; conditions: for mean concentration over time / Kp / concentration at 0.5 h / concentration at 1 h / concentration at 2 h / concentration at 4 h / concentration at 6 h / AUC(0-t) / Cmax / MRT: single oral dose of extract 30 mg/kg; for mean concentration over time: Table 7; for Kp: brain / whole blood, AUCbrain:AUC whole blood (AUC0–24 ratio); for concentration at 0.5 h / concentration at 1 h / concentration at 2 h / concentration at 4 h / concentration at 6 h: oral; for AUC(0-t): AUC0–24, brain
[5] = Whole-blood pharmacokinetics of CBD and THC after single oral dose of Cannabis sativa extract; conditions: whole blood, single oral dose of extract 30 mg/kg; for concentration at 0.5 h / concentration at 1 h / concentration at 2 h / concentration at 4 h / concentration at 6 h / concentration at 24 h / AUC(0-t) / Cmax / MRT / Tmax: male, Wistar, rat, 30 mg/kg; for concentration at 0.5 h / concentration at 1 h / concentration at 2 h / concentration at 4 h / concentration at 6 h / concentration at 24 h: oral; for AUC(0-t) / Cmax / MRT / Tmax: po; for AUC(0-t): AUC0–24, whole blood
[6] = male, Wistar, rat, brain, po, 30 mg/kg, Cremophor
[7] = male, Wistar, rat, brain, po, 30 mg/kg, Rapae oleum
[8] = Mean Concentration ± SD, blood, Rapae oleum
[9] = Mean Concentration, blood, Cremophor
[10] = mean concentration over time, Blood/Cremophor, Table 7
[11] = mean concentration over time, Blood/Rapae Oleum, Table 7

CCCCCc1cc(O)c2c(c1)OC(C)(C)[C@@H]1CCC(C)=C[C@@H]21 [THC, Δ-9-tetrahydrocannabinol]
Δ9-THC in the blood after oral CBD [1]: did not detect
Δ9-THC after oral CBD [2]: did not detect
whole-blood concentration [3]: about 5 ng/mL
mean concentration over time ([4]; Brain/Cremophor, 0.5 h): 18.575
mean concentration over time ([4]; Brain/Cremophor, 1 h): 49.521
mean concentration over time ([4]; Brain/Cremophor, 2 h): 56.85
mean concentration over time ([4]; Brain/Cremophor, 4 h): 35.976
mean concentration over time ([4]; Brain/Cremophor, 6 h): 35.947
mean concentration over time ([4]; Brain/Cremophor, 24 h): 1.154
mean concentration over time ([4]; Brain/Rapae oleum, 0.5 h): 3.719
mean concentration over time ([4]; Brain/Rapae oleum, 1 h): 43.593
mean concentration over time ([4]; Brain/Rapae oleum, 2 h): 75.768
mean concentration over time ([4]; Brain/Rapae oleum, 4 h): 27.792
mean concentration over time ([4]; Brain/Rapae oleum, 6 h): 3.7605
mean concentration over time ([4]; Brain/Rapae oleum, 24 h): 0
Kp ([4]; male, Wistar, rat, po, 30 mg/kg, Cremophor): 1.22
Kp ([4]; male, Wistar, rat, po, 30 mg/kg, Rapae oleum): 3.72
concentration at 0.5 h ([4]; male, Wistar, rat, brain, 30 mg/kg, Mean Concentration ± SD, Rapae oleum, 0.5 h): 3.72 ± 2.35 ng/g
concentration at 1 h ([4]; male, Wistar, rat, brain, 30 mg/kg, Mean Concentration ± SD, Rapae oleum, 1 h): 43.6 ± 24.8 ng/g
concentration at 2 h ([4]; male, Wistar, rat, brain, 30 mg/kg, Mean Concentration ± SD, Rapae oleum, 2 h): 75.8 ± 43.8 ng/g
concentration at 4 h ([4]; male, Wistar, rat, brain, 30 mg/kg, Mean Concentration ± SD, Rapae oleum, 4 h): 27.8 ± 15.2 ng/g
concentration at 6 h ([4]; male, Wistar, rat, brain, 30 mg/kg, Mean Concentration ± SD, Rapae oleum, 6 h): 3.76 ± 2.61 ng/g
concentration at 0.5 h ([4]; male, Wistar, rat, brain, 30 mg/kg, Mean Concentration, Cremophor, 0.5 h): 18.6 ± 11.6 ng/g
concentration at 1 h ([4]; male, Wistar, rat, brain, 30 mg/kg, Mean Concentration, Cremophor, 1 h): 49.5 ± 9.47 ng/g
concentration at 2 h ([4]; male, Wistar, rat, brain, 30 mg/kg, Mean Concentration, Cremophor, 2 h): 56.9 ± 7.39 ng/g
concentration at 4 h ([4]; male, Wistar, rat, brain, 30 mg/kg, Mean Concentration, Cremophor, 4 h): 36 ± 7.45 ng/g
concentration at 6 h ([4]; male, Wistar, rat, brain, 30 mg/kg, Mean Concentration, Cremophor, 6 h): 35.9 ± 12.7 ng/g
Tmax ([4]; male, Wistar, rat, brain, po, 30 mg/kg): 4 h
AUC(0-t) [4, 6]: 656 ng·h/mL
AUC(0-t) [4, 7]: 553 ng·h/mL
Cmax [4, 6]: 56.9 ng/g
Cmax [4, 7]: 75.8 ng/g
MRT [4, 6]: 5.11 h
MRT [4, 7]: 7.19 h
concentration at 0.5 h [5, 8]: 11.9 ± 18 ng/g
concentration at 1 h [5, 8]: 11 ± 5.21 ng/g
concentration at 2 h [5, 8]: 24 ± 7.22 ng/g
concentration at 4 h [5, 8]: 26.2 ± 19.1 ng/g
concentration at 6 h [5, 8]: 10.3 ± 2.1 ng/g
concentration at 24 h [5, 8]: 0.445 ± 0.21 ng/g
concentration at 0.5 h [5, 9]: 13.1 ± 10.9 ng/g
concentration at 1 h [5, 9]: 18.5 ± 1.98 ng/g
concentration at 2 h [5, 9]: 14 ± 3.3 ng/g
concentration at 4 h [5, 9]: 8.01 ± 1.48 ng/g
concentration at 6 h [5, 9]: 9.04 ± 4.39 ng/g
concentration at 24 h [5, 9]: 3.79 ± 4.59 ng/g
concentration at 0.5 h [5, 10]: 13.1 ng/mL
concentration at 1 h [5, 10]: 18.5 ng/mL
concentration at 2 h [5, 10]: 14 ng/mL
concentration at 4 h [5, 10]: 8.01 ng/mL
concentration at 6 h [5, 10]: 9.04 ng/mL
concentration at 24 h [5, 10]: 3.79 ng/mL
concentration at 0.5 h [5, 11]: 11.9 ng/mL
concentration at 1 h [5, 11]: 11 ng/mL
concentration at 2 h [5, 11]: 24 ng/mL
concentration at 4 h [5, 11]: 26.2 ng/mL
concentration at 6 h [5, 11]: 10.3 ng/mL
concentration at 24 h [5, 11]: 0.445 ng/mL
AUC(0-t) ([5]; Cremophor): 217 ng·h/mL
AUC(0-t) ([5]; Rapae oleum): 186 ng·h/mL
Cmax ([5]; Cremophor): 18.5 ng/mL
Cmax ([5]; Rapae oleum): 26.2 ng/mL
MRT ([5]; Cremophor): 12.7 h
MRT ([5]; Rapae oleum): 5.75 h
Tmax ([5]; Cremophor): 1 h
Tmax ([5]; Rapae oleum): 4 h
CL ([5]; Cremophor): 2.18 L/h
Vd ([5]; Cremophor): 28.26 L
CL ([5]; Rapae oleum): 2.56 L/h
Vd ([5]; Rapae oleum): 15.15 L
